Test results published in patent publication US6153434A, “Methods for the intracellular delivery of substances” (University of Florida, priority 1999, dated 2000).

Tests used:
plasmid DNA = assay: Dissociation of DNA from DNA/liposome complexes by glutathione, agarose gel electrophoresis; assay type: physicochemical; conditions: presence of glutathione
Procedure: Dissociation of DNA from DNA/liposome complexes by glutathione: One μg of plasmid DNA was dissolved in 10 (L of phosphate-buffer saline (PBS). Cationic liposomes […] or CHSTAEA/DOPE were added to pDNA solution at the increasing weight ratios of 2/1, respectively. All calculations of the weight of liposomes in this paper were based on the weight of cationic lipids only. After the complexes were incubated for 30 minutes at room temperature, 10 (L of 20 mM of glutathione in PBS (pH=7.3) was added to the mixture to reach a final concentration of glutathione of 10 mM. The mixtures were incubated at 37° C. for 20 hours. Released DNA was visualized by 1% agarose gel electrophoresis.
DNA was complexed with a disulfide cationic liposome CHDTAEA/DOPE or its non-disulfide cationic liposome analog CHSTAEA/DOPE at the cationic lipid to DNA ratio of 2/1. […] In the presence of 10 mM of glutathione, >50% of DNA was released from complexes after the incubation. […] The complexes with the ratios of cationic liposome/DNA from 3/1 to 5/1 were also tested in the release assay with similar same results.

CHO cells = assay: Transfection of pGL3-luciferase plasmid; assay type: cell-based, Chinese hamster
Procedure: (§1) FIGS. 5A and 5B show a comparison of the transfection of pGL3-luciferase plasmid by CHDTAEA/DOPE, CHSTAEA/DOPE, and DC-Chol in CHO and SKnSH cells. A fixed dose 2 μg/well of pGL3 DNA was mixed with increasing weight ratios of cationic liposomes (calculation based on cationic lipid) and used for transfection. FIG. 5A: Transfection in CHO cells, FIG. 5B: Transfection in SKnSH cells. .diamond-solid.CHDTAEA/DOPE, .box-solid.CHSTAEA/DOPE; .tangle-solidup.DC-Chol/DOPE. Data is shown as mean (S. D. (n=3).
(§2) Cell culture and gene transfection using CHDTAEA and CHSTAEA: Chinese hamster ovary (CHO) and SKnSH cells were obtained from American Tissue Type Collection (Rockville, Md.). […] DNA/liposome complexes in 100 (L of serum free media were added to each well and incubated for 4.5 hours. After the 4.5-hour transfection time, the transfection media were changed to growth media and cells were incubated for another 24 hours. Luciferase activity was measured using a standard luciferase assay (Thierry, A. R., P. Rabinovich, B. Peng, L. C. Mahan, J. L. Bryant, R. C. Gallo (1997) Gene Ther 4:226-237). Luciferase activity in transfected cells was expressed as RLU per well. All conditions for transfection were strictly kept the same for each different kind of liposomes. Experiments were repeated at least twice, and experiments were done in triplicate within a given series.

SKnSH cells = assay: Transfection of pGL3-luciferase plasmid; assay type: cell-based
Procedure: as §1, §2

SMILES: CC(C)CCC[C@@H](C)[C@H]1CC[C@H]2[C@@H]3CC=C4C[C@@H](OC(=O)CSSCC(=O)NCCN(CCN)CCN)CC[C@]4(C)[C@H]3CC[C@]12C [CHDTAEA, Cholesteryl hemidithiodiglycolyl tris(aminoethyl)amine]
- release of complexed DNA (plasmid DNA): released more than half of complexed DNA
- transfection activity vs non-disulfide analog CHSTAEA (CHO cells): greater transfection activity than its non-disulfide analog CHSTAEA
- transfection activity vs non-disulfide analog CHSTAEA (SKnSH cells): greater transfection activity than its non-disulfide analog CHSTAEA
